Measured values taken from patent US20210017295A1, “BISPECIFIC BINDING AGENTS AND USES THEREOF” (MEMORIAL SLOAN KETTERING CANCER CENTER, priority 2018, published 2021).
“And” between values parts separate entries of the source, which are not always exact repeats. Equal entries are not always repeated. Where two headings read alike, the source gives them in different places.

Tested on: s.c. HER2(+) BT-474 tumors
Type: in vivo, mouse
Settings: 24 h p.i.
[1] = PRIT + CA 62.5 μg, 55.5 MBq (~300 pmol), mean ± SEM
[2] = PRIT + CA 62.5 μg, ~5.6 MBq (~30 pmol), mean ± SEM
[3] = PRIT, CA 0% (saline), mean ± SD
[4] = PRIT, CA 7.5% w/w 18.75 μg, mean ± SD
[5] = PRIT, CA 14% w/w 37.5 μg, mean ± SD
[6] = PRIT, CA 28% w/w 70 μg, mean ± SD

For Nc1ccc(CC2CN(CC(=O)[O-])CCN(CC(=O)[O-])CCN(CC(=O)[O-])CCN2CC(=O)[O-])cc1.[177Lu+3] (centres unmarked) [^177Lu-DOTA-Bn], the “^177Lu activity in Blood” value [1] was 0.29±0.05 % IA/g, the “^177Lu activity in Bone” value [1] was 0.04 ± 0.01 % IA/g and the “^177Lu activity in Heart” value [1] was 0.11 ± 0.02 % IA/g. The “^177Lu activity in Kidneys” value [1] was 0.56±0.08 % IA/g, the “^177Lu activity in Large Int.” value [1] was 0.20 ± 0.11 % IA/g and the “^177Lu activity in Liver” value [1] was 0.33 ± 0.04 % IA/g. For the same compound, the “^177Lu activity in Lungs” value [1] was 0.20 ± 0.02 % IA/g, the “^177Lu activity in Muscle” value [1] was 0.04 ± 0.01 % IA/g and the “^177Lu activity in Small Int.” value [1] was 0.05 ± 0.01 % IA/g. The “^177Lu activity in Spleen” value [1] was 0.22 ± 0.07 % IA/g, the “^177Lu activity in Stomach” value [1] was 0.04 ± 0.01 % IA/g and the “^177Lu activity in Tumor” value [1] was 5.53±0.27 % IA/g. For the same compound, the “^177Lu activity in Blood” value [2] was 0.28±0.09 % IA/g, the “^177Lu activity in Bone” value [2] was 0.04 ± 0.01 % IA/g and the “^177Lu activity in Heart” value [2] was 0.07 ± 0.02 % IA/g. For the same compound, the “^177Lu activity in Kidneys” value [2] was 0.73±0.05 % IA/g, the “^177Lu activity in Large Int.” value [2] was 0.18 ± 0.01 % IA/g and the “^177Lu activity in Liver” value [2] was 0.27 ± 0.07 % IA/g. The “^177Lu activity in Lungs” value [2] was 0.20 ± 0.05 % IA/g, the “^177Lu activity in Muscle” value [2] was 0.06 ± 0.01 % IA/g and the “^177Lu activity in Small Int.” value [2] was 0.05 ± 0.01 % IA/g. For the same compound, the “^177Lu activity in Spleen” value [2] was 0.60 ± 0.21 % IA/g, the “^177Lu activity in Stomach” value [2] was 0.06 ± 0.01 % IA/g and the “^177Lu activity in Tumor” value [2] was 7.58±0.78 % IA/g. For the same compound, the “^177Lu activity in Blood” value (PRIT + no CA, mean ± SEM) was 4.95 ± 0.58 % IA/g, the “^177Lu activity in Bone” value (PRIT + no CA, mean ± SEM) was 0.39 ± 0.08 % IA/g and the “^177Lu activity in Heart” value (PRIT + no CA, mean ± SEM) was 1.14 ± 0.14 % IA/g. The “^177Lu activity in Kidneys” value (PRIT + no CA, mean ± SEM) was 2.31 ± 0.26 % IA/g, the “^177Lu activity in Large Int.” value (PRIT + no CA, mean ± SEM) was 0.58 ± 0.06 % IA/g and the “^177Lu activity in Liver” value (PRIT + no CA, mean ± SEM) was 1.85 ± 0.15 % IA/g. The “^177Lu activity in Lungs” value (PRIT + no CA, mean ± SEM) was 2.11 ± 0.23 % IA/g, the “^177Lu activity in Muscle” value (PRIT + no CA, mean ± SEM) was 0.38 ± 0.04 % IA/g and the “^177Lu activity in Small Int.” value (PRIT + no CA, mean ± SEM) was 0.58 ± 0.06 % IA/g. The “^177Lu activity in Spleen” value (PRIT + no CA, mean ± SEM) was 1.00 ± 0.11 % IA/g, the “^177Lu activity in Stomach” value (PRIT + no CA, mean ± SEM) was 0.34 ± 0.04 % IA/g and the “^177Lu activity in Tumor” value (PRIT + no CA, mean ± SEM) was 19.94±1.7 % IA/g and 19.94 ± 1.77 % IA/g. The “Tumor-to-tissue ratio, Blood” value [3] was 4.0±1.2, the “Tumor-to-tissue ratio, Bone” value [3] was 50.8 ± 22.7 and the “Tumor-to-tissue ratio, Heart” value [3] was 17.5 ± 5.4. For the same compound, the “Tumor-to-tissue ratio, Kidneys” value [3] was 8.6 ± 2.5, the “Tumor-to-tissue ratio, Large Int.” value [3] was 34.4 ± 9.3 and the “Tumor-to-tissue ratio, Liver” value [3] was 10.8 ± 2.6. The “Tumor-to-tissue ratio, Lungs” value [3] was 9.5 ± 2.6, the “Tumor-to-tissue ratio, Muscle” value [3] was 52.1 ± 15.2 and the “Tumor-to-tissue ratio, Small Int.” value [3] was 34.5 ± 9.3. The “Tumor-to-tissue ratio, Spleen” value [3] was 19.9 ± 5.5, the “Tumor-to-tissue ratio, Stomach” value [3] was 59.1 ± 18.8 and the “^177Lu activity in Blood” value [3] was 4.95±1.17 % IA/g. For the same compound, the “^177Lu activity in Bone” value [3] was 0.39 ± 0.16 % IA/g, the “^177Lu activity in Heart” value [3] was 1.14 ± 0.29 % IA/g and the “^177Lu activity in Kidneys” value [3] was 2.31 ± 0.52 % IA/g. The “^177Lu activity in Large Int.” value [3] was 0.58 ± 0.12 % IA/g, the “^177Lu activity in Liver” value [3] was 1.85 ± 0.30 % IA/g and the “^177Lu activity in Lungs” value [3] was 2.11 ± 0.45 % IA/g. The “^177Lu activity in Muscle” value [3] was 0.38 ± 0.09 % IA/g, the “^177Lu activity in Small Int.” value [3] was 0.58 ± 0.12 % IA/g and the “^177Lu activity in Spleen” value [3] was 1.00 ± 0.21 % IA/g. The “^177Lu activity in Stomach” value [3] was 0.34 ± 0.09 % IA/g, the “^177Lu activity in Tumor” value [3] was 19.94±3.54 % IA/g and the “Tumor-to-tissue ratio, Blood” value [4] was 7.1 ± 4.1. The “Tumor-to-tissue ratio, Bone” value [4] was 80.6 ± 61.9, the “Tumor-to-tissue ratio, Heart” value [4] was 16.0 ± 9.6 and the “Tumor-to-tissue ratio, Kidneys” value [4] was 9.7 ± 6.0. The “Tumor-to-tissue ratio, Large Int.” value [4] was 29.9 ± 10.7, the “Tumor-to-tissue ratio, Liver” value [4] was 15.0 ± 7.8 and the “Tumor-to-tissue ratio, Lungs” value [4] was 15.8 ± 7.9. The “Tumor-to-tissue ratio, Muscle” value [4] was 67.5 ± 20.1, the “Tumor-to-tissue ratio, Small Int.” value [4] was 33.7 ± 19.2 and the “Tumor-to-tissue ratio, Spleen” value [4] was 12.6 ± 3.3. For the same compound, the “Tumor-to-tissue ratio, Stomach” value [4] was 59.2 ± 17.0, the “^177Lu activity in Blood” value [4] was 1.03 ± 0.58 % IA/g and the “^177Lu activity in Bone” value [4] was 0.09 ± 0.07 % IA/g. For the same compound, the “^177Lu activity in Heart” value [4] was 0.45 ± 0.27 % IA/g, the “^177Lu activity in Kidneys” value [4] was 0.75 ± 0.46 % IA/g and the “^177Lu activity in Large Int.” value [4] was 0.24 ± 0.08 % IA/g. For the same compound, the “^177Lu activity in Liver” value [4] was 0.49 ± 0.25 % IA/g, the “^177Lu activity in Lungs” value [4] was 0.46 ± 0.23 % IA/g and the “^177Lu activity in Muscle” value [4] was 0.11 ± 0.03 % IA/g. The “^177Lu activity in Small Int.” value [4] was 0.22 ± 0.12 % IA/g, the “^177Lu activity in Spleen” value [4] was 0.58 ± 0.14 % IA/g and the “^177Lu activity in Stomach” value [4] was 0.12 ± 0.03 % IA/g. For the same compound, the “^177Lu activity in Tumor” value [4] was 7.26 ± 0.55 % IA/g, the “Tumor-to-tissue ratio, Blood” value [5] was 13.1 ± 5.1 and the “Tumor-to-tissue ratio, Bone” value [5] was 159.0 ± 66.7. The “Tumor-to-tissue ratio, Heart” value [5] was 45.1 ± 18.9, the “Tumor-to-tissue ratio, Kidneys” value [5] was 8.7 ± 3.2 and the “Tumor-to-tissue ratio, Large Int.” value [5] was 18.9 ± 10.9. The “Tumor-to-tissue ratio, Liver” value [5] was 14.6 ± 5.3, the “Tumor-to-tissue ratio, Lungs” value [5] was 19.6 ± 7.4 and the “Tumor-to-tissue ratio, Muscle” value [5] was 84.5 ± 37.6. For the same compound, the “Tumor-to-tissue ratio, Small Int.” value [5] was 39.8 ± 21.2, the “Tumor-to-tissue ratio, Spleen” value [5] was 9.8 ± 4.4 and the “Tumor-to-tissue ratio, Stomach” value [5] was 50.1 ± 20.7. For the same compound, the “^177Lu activity in Blood” value [5] was 0.52 ± 0.08 % IA/g, the “^177Lu activity in Bone” value [5] was 0.04 ± 0.01 % IA/g and the “^177Lu activity in Heart” value [5] was 0.15 ± 0.03 % IA/g. For the same compound, the “^177Lu activity in Kidneys” value [5] was 0.78 ± 0.09 % IA/g, the “^177Lu activity in Large Int.” value [5] was 0.36 ± 0.16 % IA/g and the “^177Lu activity in Liver” value [5] was 0.46 ± 0.04 % IA/g. The “^177Lu activity in Lungs” value [5] was 0.35 ± 0.05 % IA/g, the “^177Lu activity in Muscle” value [5] was 0.08 ± 0.02 % IA/g and the “^177Lu activity in Small Int.” value [5] was 0.17 ± 0.07 % IA/g. The “^177Lu activity in Spleen” value [5] was 0.69 ± 0.20 % IA/g, the “^177Lu activity in Stomach” value [5] was 0.14 ± 0.03 % IA/g and the “^177Lu activity in Tumor” value [5] was 6.76 ± 2.39 % IA/g. For the same compound, the “Tumor-to-tissue ratio, Blood” value [6] was 25.6 ± 13.9, the “Tumor-to-tissue ratio, Bone” value [6] was 63.5 ± 97.0 and the “Tumor-to-tissue ratio, Heart” value [6] was 63.5 ± 35.2. The “Tumor-to-tissue ratio, Kidneys” value [6] was 9.4 ± 4.3, the “Tumor-to-tissue ratio, Large Int.” value [6] was 37.7 ± 18.5 and the “Tumor-to-tissue ratio, Liver” value [6] was 21.2 ± 9.7. The “Tumor-to-tissue ratio, Lungs” value [6] was 28.5 ± 14.3, the “Tumor-to-tissue ratio, Muscle” value [6] was 84.6 ± 45.2 and the “Tumor-to-tissue ratio, Small Int.” value [6] was 99.7 ± 47.9. For the same compound, the “Tumor-to-tissue ratio, Spleen” value [6] was 9.6 ± 4.9, the “Tumor-to-tissue ratio, Stomach” value [6] was 133.0 ± 76.7 and the “^177Lu activity in Blood” value [6] was 0.27 ± 0.08 % IA/g. The “^177Lu activity in Bone” value [6] was 0.11 ± 0.16 % IA/g and the “^177Lu activity in Heart” value [6] was 0.11 ± 0.04 % IA/g.
